Assay results reported in PMC5675407, “Sugar analog synthesis by in vitro biocatalytic cascade: A comparison of alternative enzyme complements for dihydroxyacetone phosphate production as a precursor to rare chiral sugar synthesis” (PLoS ONE, 2017).

Molecular target: T1, FruASc (Staphylococcus carnosus, UniProt Q07159)
T1 construct: gene fda; recombinant from pETScFruA, E. coli
Assay: LC-MS of aldol product in enzyme cascade
Assay type: biochemical
Conditions: DHAP made in situ; acetaldehyde or glyceraldehyde-3-phosphate 10 mM, pH 7.9, 22 °C

T1 sequence (Q07159 2-296): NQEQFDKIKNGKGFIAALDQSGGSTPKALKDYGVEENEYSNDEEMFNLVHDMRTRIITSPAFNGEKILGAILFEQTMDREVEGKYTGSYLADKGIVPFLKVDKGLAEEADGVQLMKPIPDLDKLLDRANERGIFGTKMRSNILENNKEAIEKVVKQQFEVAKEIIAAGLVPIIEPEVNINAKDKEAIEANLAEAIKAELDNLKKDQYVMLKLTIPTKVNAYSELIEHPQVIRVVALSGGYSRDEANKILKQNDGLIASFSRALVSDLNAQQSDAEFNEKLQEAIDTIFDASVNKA

SMILES: O=C(CO)COP(=O)(O)O [DHAP]
- LC-MS of aldol product in enzyme cascade: as DHAP was consumed by the aldolase reaction, greater conversion to DHAP occurred
